Measurements from ChEMBL document CHEMBL1201862, “PubChem BioAssay data set” (2004).
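Interpolation was linear, between the two tested concentrations surrounding the appropriate level; five concentrations were tested over 48 hours in 96-well plates. Abbreviation: GI50, concentration required for 50% inhibition of growth.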 Calls of active or inactive are those of the source. Rule as the data show it: active = GI50 up to about 1.1 µM and inactive = higher.

How the values were obtained:
Assay in all cases: growth of human tumour cells (NCI), 48 h
HOP-18 = tested on: HOP-18
NCI-H460 = tested on: NCI-H460
HCT-116 = tested on: HCT-116
OVCAR-5 = tested on: OVCAR-5
UO-31 = tested on: UO-31
DMS-114 = tested on: DMS-114
KM12 = tested on: KM12
NCI-H23 = tested on: NCI-H23
786-0 = tested on: 786-0
HOP-62 = tested on: HOP-62
HT-29 = tested on: HT-29
SR = tested on: SR
CCRF-CEM = tested on: CCRF-CEM
SK-MEL-28 = tested on: SK-MEL-28
K562 = tested on: K562
HCC 2998 = tested on: HCC 2998
SN12C = tested on: SN12C
M14 = tested on: M14
OVCAR-4 = tested on: OVCAR-4
U-251 = tested on: U-251
Malme-3M = tested on: Malme-3M
HOP-92 = tested on: HOP-92
SF-268 = tested on: SF-268
A498 = tested on: A498
EKVX = tested on: EKVX
OVCAR-8 = tested on: OVCAR-8
KM-20L2 = tested on: KM-20L2
CAKI-1 = tested on: CAKI-1
SF-295 = tested on: SF-295
SW-620 = tested on: SW-620
RXF 393 = tested on: RXF 393
UACC-62 = tested on: UACC-62
A549 = tested on: A549
SK-MEL-5 = tested on: SK-MEL-5
DLD-1 = tested on: DLD-1
UACC-257 = tested on: UACC-257
OVCAR-3 = tested on: OVCAR-3
IGROV-1 = tested on: IGROV-1
NCI-H522 = tested on: NCI-H522
HCT-15 = tested on: HCT-15
HL-60 = tested on: HL-60
SF-539 = tested on: SF-539
TK-10 = tested on: TK-10
MOLT-4 = tested on: MOLT-4
M19-MEL = tested on: M19-MEL
ACHN = tested on: ACHN
SK-MEL-2 = tested on: SK-MEL-2
LXFL 529 = tested on: LXFL 529
SNB-78 = tested on: SNB-78

Q: Which results are given for `CCCC/C=C1\CCC(C)(CN(C)C)C1=O` (centres undefined)?
A: GI50 (HOP-18): > 100 µM (inactive); GI50 (NCI-H460): > 100 µM (inactive); GI50 (HCT-116): > 100 µM (inactive); GI50 (OVCAR-5): > 100 µM (inactive); GI50 (UO-31): > 100 µM (inactive); GI50 (DMS-114): > 100 µM (inactive); GI50 (KM12): > 100 µM (inactive); GI50 (NCI-H23): > 100 µM (inactive); GI50 (786-0): > 100 µM (inactive); GI50 (HOP-62): > 100 µM (inactive); GI50 (HT-29): > 100 µM (inactive); GI50 (SR): > 100 µM (inactive); GI50 (CCRF-CEM): > 100 µM (inactive); GI50 (SK-MEL-28): > 100 µM (inactive); GI50 (K562): > 100 µM (inactive); GI50 (HCC 2998): > 100 µM (inactive); GI50 (SN12C): > 100 µM (inactive); GI50 (M14): > 100 µM (inactive); GI50 (OVCAR-4): > 100 µM (inactive); GI50 (U-251): > 100 µM (inactive); GI50 (Malme-3M): > 100 µM (inactive); GI50 (HOP-92): > 100 µM (inactive); GI50 (SF-268): > 100 µM (inactive); GI50 (A498): > 100 µM (inactive); GI50 (EKVX): > 100 µM (inactive); GI50 (OVCAR-8): > 100 µM (inactive); GI50 (KM-20L2): > 100 µM (inactive); GI50 (CAKI-1): > 100 µM (inactive); GI50 (SF-295): > 100 µM (inactive); GI50 (SW-620): > 100 µM (inactive); GI50 (RXF 393): 46.5 µM (inactive); GI50 (UACC-62): > 100 µM (inactive); GI50 (A549): > 100 µM (inactive); GI50 (SK-MEL-5): > 100 µM (inactive); GI50 (DLD-1): > 10 µM (inactive); GI50 (UACC-257): > 100 µM (inactive); GI50 (OVCAR-3): > 100 µM (inactive); GI50 (IGROV-1): > 100 µM (inactive); GI50 (NCI-H522): 28.9 µM (inactive); GI50 (HCT-15): > 100 µM; GI50 (HL-60): 55.5 µM (inactive); GI50 (SF-539): > 100 µM (inactive); GI50 (TK-10): > 100 µM (inactive); GI50 (MOLT-4): > 100 µM (inactive); GI50 (M19-MEL): 15.6 µM (inactive); GI50 (ACHN): > 100 µM (inactive); GI50 (SK-MEL-2): > 100 µM (inactive); GI50 (LXFL 529): > 100 µM (inactive); GI50 (SNB-78): > 100 µM (inactive)
